Assays:
Lens GSH = Lens GSH and GSSG level (enzymatic recycling method) in BSO-treated rats
Procedure: Animals were divided into 3 groups and given 4 injections per day for 2 days, according to the following protocol: Each experimental group consisted of 20-25 animals. BSO, L-Buthionine-(S,R)-sulfoximine was dissolved in 0.1 M NaCl and injected at a concentration of 3 mmol/g body weight (total volume not exceeding 60 ml). CLX-SYN-G165-001 was dissolved in ethanol: NaCl (50:50, v/v). BSO was injected subcutaneously into new born animals (age 28-36 hours). CLX-SYN-G165-001 (15 mg/kg b.w.) was given intraperitoneally. An equivalent volume of ethanol: NaCl and/or NaCl was given to the controls. Rats were sacrificed when they opened their eyes (14-15 days). […] Isolation of lenses: After decapitation of the animals the eyes were carefully dissected out from the ciliary body and the lens capsule was released from the enucleated eye globes. Each lens was weighed and placed in a microfuge tube and frozen immediately in liquid nitrogen for future analyses. Glutathione: Frozen lenses were homogenized in 5% sulfosalicylic acid, 5 mM EDTA, ice cold and bubbled with argon. After centrifugation GSH and GSSG were determined by the enzymatic recycling method.

[1] = system: BSO-Induced Cataract Formation; test: BSO-induced cataract formation in rats (slit-lamp, lenses opaque or clear); details: read at 14-15 days; for animals developed cataract: new born rats
Procedure: Effects of CLX-SYN-G165-001 on BSO-Induced Cataract Formation in Rats Sprague-Dawley rats (female, timed pregnant) were housed in the Research Animal Facilities and given food and water ad libitum. They were breast fed.
Animals were divided into 3 groups and given 4 injections per day for 2 days, according to the following protocol: Each experimental group consisted of 20-25 animals. BSO, L-Buthionine-(S,R)-sulfoximine was dissolved in 0.1 M NaCl and injected at a concentration of 3 mmol/g body weight (total volume not exceeding 60 ml). CLX-SYN-G165-001 was dissolved in ethanol: NaCl (50:50, v/v). BSO was injected subcutaneously into new born animals (age 28-36 hours). CLX-SYN-G165-001 (15 mg/kg b.w.) was given intraperitoneally. An equivalent volume of ethanol: NaCl and/or NaCl was given to the controls. Rats were sacrificed when they opened their eyes (14-15 days). Cataract formation was visualized with a slit-lamp microscope and the lenses were classified as opaque or clear.

Row | SMILES | lens GSH level, % that of control level (Lens GSH; treatment with BSO and CLX-SYN-G165-001, p<0.001 vs BSO only) | animals developed cataract ([1]; BSO plus CLX-SYN-G165-001 (15 mg/kg b.w. intraperitoneally), 4 injections per day for 2 days, p<0.005 vs BSO only) [%] | animals developed cataract ([1]; CLX-SYN-G165-001 without BSO (15 mg/kg b.w. intraperitoneally)) [%] | GSH in the lenses, % lower than that of the control lenses (Lens GSH; BSO-treated rats) | animals developed cataracts ([1]; BSO alone, subcutaneously, new born rats (age 28-36 hours)) [%]
1 | CC(C)=CCC[C@@H](C)[C@H]1CC[C@@]2(C)C3=C(CC[C@]12C)[C@@]1(C)CC[C@H](OC(=O)CCCC[C@@H]2CCSS2)C(C)(C)[C@@H]1CC3 [CLX-SYN-G165-001] | 84-87% | 13 | 0 |  | 
2 | CCCCS(=N)(=O)CCC(N)C(=O)O [BSO, L-Buthionine-(S,R)-sulfoximine, reference compound] |  |  |  | about 55% | 100
